{"source": "ChEMBL document CHEMBL4118160", "about": "“Heterocycles: Versatile control elements in bioactive macrocycles” (Bioorg Med Chem, 2018)", "target": "Integrin alpha-V/beta-3 (Homo sapiens, UniProt P05106+P06756)", "sequence (P05106 27-788 limits assumed)": "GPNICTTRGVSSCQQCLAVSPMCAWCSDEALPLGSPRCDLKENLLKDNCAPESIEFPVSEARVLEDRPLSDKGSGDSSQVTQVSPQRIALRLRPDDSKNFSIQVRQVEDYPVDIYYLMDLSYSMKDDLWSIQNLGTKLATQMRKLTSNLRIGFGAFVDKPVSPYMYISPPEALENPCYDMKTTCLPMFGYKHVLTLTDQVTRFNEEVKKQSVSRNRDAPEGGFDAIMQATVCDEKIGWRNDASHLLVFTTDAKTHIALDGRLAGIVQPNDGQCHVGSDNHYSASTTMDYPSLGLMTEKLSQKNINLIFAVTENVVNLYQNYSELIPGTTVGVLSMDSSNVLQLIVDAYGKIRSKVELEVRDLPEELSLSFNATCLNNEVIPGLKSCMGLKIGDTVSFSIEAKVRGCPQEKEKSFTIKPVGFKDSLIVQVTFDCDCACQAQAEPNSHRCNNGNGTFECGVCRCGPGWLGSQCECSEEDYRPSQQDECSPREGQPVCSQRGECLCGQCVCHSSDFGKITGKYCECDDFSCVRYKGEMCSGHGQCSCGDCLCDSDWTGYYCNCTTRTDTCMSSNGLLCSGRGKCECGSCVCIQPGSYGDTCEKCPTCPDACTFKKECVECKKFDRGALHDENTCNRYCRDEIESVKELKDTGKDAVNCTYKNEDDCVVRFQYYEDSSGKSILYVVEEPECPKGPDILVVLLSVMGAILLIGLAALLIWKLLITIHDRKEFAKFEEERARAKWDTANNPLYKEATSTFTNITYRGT", "sequence (P06756 31-889 limits assumed)": "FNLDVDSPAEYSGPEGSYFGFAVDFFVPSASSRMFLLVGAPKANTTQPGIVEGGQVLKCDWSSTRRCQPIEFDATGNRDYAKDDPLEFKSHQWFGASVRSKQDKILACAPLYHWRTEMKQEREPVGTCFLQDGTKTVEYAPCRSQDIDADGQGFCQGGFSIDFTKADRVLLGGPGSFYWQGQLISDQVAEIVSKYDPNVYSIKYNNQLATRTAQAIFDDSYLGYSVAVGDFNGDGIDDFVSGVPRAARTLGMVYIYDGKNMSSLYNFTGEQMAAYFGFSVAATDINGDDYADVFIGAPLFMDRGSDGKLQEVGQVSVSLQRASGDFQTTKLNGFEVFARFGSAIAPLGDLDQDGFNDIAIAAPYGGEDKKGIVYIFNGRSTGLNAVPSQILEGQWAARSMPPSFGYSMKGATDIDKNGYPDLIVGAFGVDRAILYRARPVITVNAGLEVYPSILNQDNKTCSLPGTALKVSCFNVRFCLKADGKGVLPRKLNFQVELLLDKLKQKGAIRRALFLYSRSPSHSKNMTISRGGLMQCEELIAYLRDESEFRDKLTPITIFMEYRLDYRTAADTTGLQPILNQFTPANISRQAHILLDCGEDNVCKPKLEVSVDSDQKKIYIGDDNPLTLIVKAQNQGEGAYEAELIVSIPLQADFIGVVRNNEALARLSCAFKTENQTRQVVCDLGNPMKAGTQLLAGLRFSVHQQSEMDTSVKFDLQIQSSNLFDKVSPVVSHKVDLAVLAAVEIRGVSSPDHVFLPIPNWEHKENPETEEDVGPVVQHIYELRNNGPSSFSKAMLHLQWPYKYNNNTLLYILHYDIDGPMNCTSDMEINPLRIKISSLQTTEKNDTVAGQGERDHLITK", "sequence (P06756 891-1048 limits assumed)": "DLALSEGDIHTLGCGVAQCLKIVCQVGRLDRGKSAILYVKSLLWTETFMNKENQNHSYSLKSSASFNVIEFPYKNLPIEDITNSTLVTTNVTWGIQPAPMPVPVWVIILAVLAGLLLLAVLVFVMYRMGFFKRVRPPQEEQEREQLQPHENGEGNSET", "test": "Inhibition of vitronectin binding to alphaVbeta3 integrin (unknown origin) measured after 3 hrs", "format": "protein-complex assay", "note": "pIC50: −log10 of the molar value.", "data": [{"smiles": "N=C(N)NCCC[C@H]1NC(=O)CNC(=O)[C@@H](CC(=O)O)CN[C@@H]2O[C@H](C1=O)[C@@H](OCc1ccccc1)[C@H](OCc1ccccc1)[C@H]2OCc1ccccc1", "values": [{"measurement": "pIC50", "result": "≥ 6.82"}]}, {"smiles": "N=C(N)NCCC[C@H]1NC(=O)CNC(=O)[C@@H](CC(=O)O)CN[C@H]2O[C@H](C1=O)[C@@H](OCc1ccccc1)[C@H](OCc1ccccc1)[C@H]2OCc1ccccc1", "values": [{"measurement": "pIC50", "result": "≥ 6.82"}]}]}
